The test system of series [1] is Lactobacillus fermentum (ATCC 14931). Nature of the series: Glucose Uptake Index of Lactobacillus fermentum culture with ionic liquid. It is filed as cell-based. The conditions noted are these: 5% (v/v) of the ionic liquid phase, MRS medium, 30° C., 16 hours after addition.
For series [2], the system named is Lactobacillus zeae (ATCC 15820). The experiment in a line: Glucose Uptake Index of Lactobacillus zeae culture with ionic liquid. It is filed as cell-based. The conditions noted are these: 5% (v/v) of the ionic liquid phase, MRS medium, 30° C., 16 hours after addition.
Experimental: This media was made per bottle instructions using sterilized water, and was then again filter sterilized before use. The test tubes were incubated at 30° C. at 175 rpm in an Inova Incubator (Karlsbad, Sweden). After 24 hours, the test tubes were removed and stored at 4° C.
A portion (50 μL) of each stock culture prepared as above was inoculated into separate 15 mL sterile polypropylene culture tubes containing fresh MRS medium (3 mL). These tubes were incubated for four hours at 30° C. at 175 rpm. After four hours, one of these culture tubes was inoculated with 150 μL (5% v/v) of each of the ionic liquids as listed in Table 1 below. […] Each tube that was inoculated with an ionic liquid was also paired with a tube that received no ionic liquid and was used as a control.
All culture tubes were then incubated again under the same conditions for another 16 hours. After 16 hours, the culture tubes were stored at −80° C. Analytical samples were taken from each culture tube by thawing the samples and spinning them at 28,000 rpm and 20° C. for ten minutes in a Sorvall Instruments RC3C (Newtown Conn.) centrifuge. One milliliter of supernatant was removed from each tube and was subjected to high performance liquid chromatography (HPLC) analysis using an Agilent (Palo Alto Calif.) HPLC 1100 with a BioRad Aminex 87-H using 0.008 N sulfuric acid with both diode array and refractive index detection, and an Agilent HPLC 1100 with a Shodex OH-pak column using 0.01 N sulfuric acid. Data analysis was performed using the Agilent Chemstation software and Microsoft Excel.
The glucose uptake index was calculated by taking the total glucose consumed in a fermentation sample, whether or not the sample contained an ionic liquid, and dividing it by the total initial glucose present in the broth at the start of fermentation.
Series [3] can be described thus: Extraction of ethanol from an aqueous solution by ionic liquid. The conditions noted are these: for Ethanol Remaining in Solution: aqueous solution about 31 g/L ethanol; for Ethanol Remaining in Solution / Ethanol Extracted: 5 vol % ionic liquid; for Ethanol Remaining in Solution / Ethanol: overnight equilibration, HPLC; for Ethanol: ethanol concentration in aqueous solution (about 31 g/L at start) after mixing with 5 vol % ionic liquid; for Ethanol Extracted: percentage relative to control without ionic liquid (Example 31).

Series [4] in a line: Extraction of isobutanol from an aqueous solution by ionic liquid. The conditions noted are these: for Isobutanol Remaining in Solution: aqueous solution about 31 g/L isobutanol; for Isobutanol Remaining in Solution / Isobutanol Extracted: 5 vol % ionic liquid; for Isobutanol Remaining in Solution / Isobutanol: overnight equilibration, HPLC; for Isobutanol: isobutanol concentration in aqueous solution (about 31 g/L at start) after mixing with 5 vol % ionic liquid; for Isobutanol Extracted: percentage relative to control without ionic liquid (Example 31).
Experimental: Ethanol and isobutanol concentration in the solution was measured using HPLC as described above following thorough mixing and overnight equilibration of the contents of the vial.

Where “and” joins values, the source holds several entries; their conditions need not be identical. Identical values can stand only once.

The values below come from patent publication US20100143993A1, “PROCESS FOR FERMENTIVE PREPARATIONFOR ALCOLHOLS AND RECOVERY OF PRODUCT” (E.I. DU PONT DE NEMOURS AND COMPANY, priority 2008, published 2010).

Take “1-butyl-3-methylimidazolium 1,1,2,3,3,3-hexafluoropropanesulfonate [[BMIM] [HFPS]]”: the “GUI of Sample (Glucose Utilization Index)” value in series [1] is 8.0 and 11.5; in series [2] it was 21.2 and 34.3.

“1-butyl-3-methylimidazolium 1,1,2-trifluoro-2-(perfluoroethoxy)ethanesulfonate [[BMIM] [TPES]]”: the entries for the “GUI of Sample (Glucose Utilization Index)” value in series [1] and in series [2] were 7.21 and 5.06, respectively.

On to “1-butyl-3-methylimidazolium 1,1,2-trifluoro-2-(trifluoromethoxy)ethanesulfonate [[BMIM] [TTES]]”, for which the “GUI of Sample (Glucose Utilization Index)” value in series [1] is on record as 16.2; in series [2], 58.8.

Turning to “1-butyl-3-methylimidazolium 2-(1,2,2,2-tetrafluoroethoxy)-1,1,2,2-tetrafluoroethanesulfonate [[BMIM] [FS]]”, the “GUI of Sample (Glucose Utilization Index)” value in series [1] came out at 24.0; in series [2] it was 54.4.

“1-butyl-3-methylimidazolium bis(trifluoromethylsulfonyl)imide [[BMIM] [Tf2N]]”: the “GUI of Sample (Glucose Utilization Index)” value in series [1] was determined as 26.8; in series [2] it was 64.4.

Take “1-butyl-3-methylpyrrolidinium bis(trifluoromethylsulfonyl)imide [[BMP] [Tf2N]]”: in series [3], the “Ethanol Remaining in Solution” value stood at 31.1 g/L, the “Ethanol” value was 676 mM and the “Ethanol Extracted” value is 1.17%. Further, the “GUI of Sample (Glucose Utilization Index)” value in series [1] is listed as 0.96. In addition, the “GUI of Sample (Glucose Utilization Index)” value in series [2] came out at 49.8. For the same compound, in series [4], the “Isobutanol Remaining in Solution” value is on record as 29.0 g/L, the “Isobutanol” value was found to be 391 mM and the “Isobutanol Extracted” value worked out at 6.33%.

Take “1-ethyl-3-methylimidazolium bis(pentafluoroethylsulfonyl)imide [[EMIM] [BEI]]”: the “GUI of Sample (Glucose Utilization Index)” value was 25.5 in series [1] and 36.0 in series [2].

Turning to “1-ethyl-3-methylimidazolium bis(trifluoromethylsulfonyl)imide [[EMIM] [Tf2N]]”, in series [3], the “Ethanol Remaining in Solution” value stood at 30.9 g/L, the “Ethanol” value is 670 mM and the “Ethanol Extracted” value is listed as 1.96%. Moreover, the “GUI of Sample (Glucose Utilization Index)” value in series [1] is recorded as 54.5. Further, the “GUI of Sample (Glucose Utilization Index)” value in series [2] is on record as 51.2. Also, in series [4], the “Isobutanol Remaining in Solution” value was found to be 28.8 g/L, the “Isobutanol” value turned out to be 389 mM and the “Isobutanol Extracted” value amounted to 7.11%.

On to “1-hexyl-3-methylimidazolium bis(trifluoromethylsulfonyl)imide [[HMIM] [Tf2N]]”, for which, in series [3], the “Ethanol Remaining in Solution” value is 31.3 g/L, the “Ethanol” value worked out at 678 mM and the “Ethanol Extracted” value came to 0.76%. For the same compound, the “GUI of Sample (Glucose Utilization Index)” value in series [1] is 19.5. Besides, the “GUI of Sample (Glucose Utilization Index)” value in series [2] is 66.2. For the same compound, in series [4], the “Isobutanol Remaining in Solution” value came out at 28.8 g/L, the “Isobutanol” value was found to be 388 mM and the “Isobutanol Extracted” value is listed as 7.28%.

“3-methyl-1-propylpyridinium bis(trifluoromethylsulfonyl)imide [[PMPy] [Tf2N]]”: the “GUI of Sample (Glucose Utilization Index)” value is recorded as 26.1 in series [1] and 63.5 in series [2].

Regarding `CCCCn1cc[n+](C)c1.F[B-](F)(F)F` [[BMIM] [BF4], 1-butyl-3-methylimidazolium tetrafluoroborate], in series [2], the “GUI of Sample (Glucose Utilization Index)” value is on record as 11.8.

In the case of `CCCCn1cc[n+](C)c1.F[P-](F)(F)(F)(F)F` [[BMIM] [PF6], 1-butyl-3-methylimidazolium hexafluorophosphate], the “GUI of Sample (Glucose Utilization Index)” value in series [2] worked out at 55.4.

Consider `CCCCCCn1cc[n+](C)c1.FC(F)(F)C(F)(F)[P-](F)(F)(F)(C(F)(F)C(F)(F)F)C(F)(F)C(F)(F)F` [[HMIM] [FAP], 1-hexyl-3-methylimidazolium tris(pentafluoroethyl)trifluorophosphate], for which, in series [3], the “Ethanol” value was 680 mM and the “Ethanol Extracted” value was found to be 0.45%. Also, the “GUI of Sample (Glucose Utilization Index)” value in series [1] came out at 84.7. Further, the “GUI of Sample (Glucose Utilization Index)” value in series [2] worked out at 51.9. For the same compound, in series [4], the “Isobutanol” value was 404 mM and the “Isobutanol Extracted” value stood at 3.14%.

Regarding “tetradecyl(tri-n-hexyl)phosphonium 1,1,2-trifluoro-2-(perfluoroethoxy)ethanesulfonate [[6,6,6,14-P] [TPES]]”, the “GUI of Sample (Glucose Utilization Index)” value amounted to 92.8 in series [1] and 62.8 in series [2].
